The source of these data is patent US12527837B2, “Peptide for use in the prevention and/or treatment of a disease caused by a virus affecting the respiratory tract” (priority 2020, dated 2026).

Data set [1] deals with standardised antigens from H1N1 virus. Kind of data set: Haemagglutination Inhibition Assay (HAI) with standardised antigens of influenza virus subtype H1N1. The format is cell-based. Conditions: for activity of lysine-acetylated derivatives against the influenza virus compared with the parent peptides of example 2.1: HAI with standardised antigens.
Data set [2] concerns live virus from subtype H1N1 of influenza virus. Kind of data set: HAI with live influenza virus subtype H1N1. The format is cell-based. Conditions: live virus 4 HAU/25 μl; 1.5% v/v turkey red blood cells; FIG. 4A.
For data set [3], the system named is live virus from subtype H3N2 of influenza virus. The data set is described as follows: HAI with live influenza virus subtype H3N2. Format: cell-based. Conditions: live virus 4 HAU/25 μl; 1.5% v/v turkey red blood cells; FIG. 4B.
Data set [4] deals with human coronavirus SARS-CoV-2. The data set is described as follows: HAI with heat-inactivated viral lysate of SARS-CoV-2. Format: cell-based. Conditions: heat-inactivated viral lysate 4 UHA/25 μl; 1.5% v/v turkey RBC; FIG. 5.
Data set [5] concerns human coronavirus HcoV-OC43. Kind of data set: HAI with heat-inactivated viral lysate of HcoV-OC43. The format is cell-based. Conditions: heat-inactivated viral lysate 4 UHA/25 μl; 1.5% v/v turkey RBC; FIG. 5.
The subject of another data set is measles virus. The data set is described as follows: HAI with heat-inactivated viral lysate of measles virus. The format is cell-based. Conditions: heat-inactivated viral lysate 4 UHA/25 μl; 1.5% v/v turkey RBC; FIG. 5.
The mark [6] stands for this setting: MDCK cells, 20 hours, MTS, FIG. 10.
The mark [7] stands for this setting: MDCK cells, 20 hours, MTS, highest concentration tested 1 mg/ml.

Read-outs that look alike come from different tables or passages of the source. No end group written: not given here.

For “LEK*GLDGAKK AVGGLGKLGKDAVEDLESVGKGAVHDVKDVL (LEK(Ac)GLDGAKKAVGGLGKLGKDAVEDLESVGKGAVHDVKDVL) [SEQ ID No.: 29]”, the “activity of lysine-acetylated derivatives against the influenza virus compared with the parent peptides of example 2.1” value in data set [1] was “the same activity”.
For the substance “LEK*GLDGAKK AVGGLGKLGKDAVEDLESVGKGAVHDVKDVLD (LEK(Ac)GLDGAKKAVGGLGKLGKDAVEDLESVGKGAVHDVKDVLD) [SEQ ID No.: 19]”, in data set [1], the “activity of lysine-acetylated derivatives against the influenza virus compared with the parent peptides of example 2.1” value is “the same activity”.
With “LEK*GLDGAKK AVGGLGKLGKDAVEDLESVGKGAVHDVKDVLDSVL (LEK(Ac)GLDGAKKAVGGLGKLGKDAVEDLESVGKGAVHDVKDVLDSVL) [SEQ ID No.: 20]”, the “activity against the H1N1 subtype of live influenza virus (HAI)” value (from here on “activity against the H1N1 subtype”) in data set [2] is “had activity”. Besides, the “activity of lysine-acetylated derivatives against the influenza virus compared with the parent peptides of example 2.1” value in data set [1] is “the same activity”. For the same substance, the “activity against the H3N2 subtype of live influenza virus (HAI)” value (from here on “activity against the H3N2 subtype”) in data set [3] is reported as “had activity”.
On to “LEKGLDGAKKAVGGLGKLGKDAVEDLESVGKGAVHDVKDVLD (LEKGLDGAKKAVGGLGKLGKDAVEDLESVGKGAVHDVKDVLD; LEK-42) [SEQ ID No.: 1, dermcidin fragment]”, for which the “activity against standardised antigens of H1N1 subtype of influenza virus (inhibiting haemagglutination)” value in data set [1] (H1N1 antigens 8 HAU/50 μl, 5% v/v turkey red blood cells, FIG. 2 and FIG. 3) is on record as “had activity”.
For the substance “LEKGLDGAKKAVGGLGKLGKDAVEDLESVGKGAVHDVKDVLDSVL [SEQ ID No.: 2, LEKGLDGAKKAVGGLGKLGKDAVEDLESVGKGAVHDVKDVLDSVL]”, the “peptides that cause significant toxicity in cells” value with MDCK cells (setting [6]) is “none”. In the data set with MDCK cells (setting [7]), the “cells in the culture that exhibited toxicity” value came out at 20%.
Turning to “RRKKAAVALLPAVLLALLAP [EB, RRKKAAVALL PAVLLALLAP, reference compound]”, in the data set on MDCK cells, the “cytotoxicity observed in the culture” value is listed as “total cell destruction” and the “cytotoxicity of the cells in the culture” value is listed as 50%.
On to “SSLLEK*GLDG AKKAVGGLGK LGKDA (SSLLEK(Ac)GLDGAKKAVGGLGKLGKDA) [SEQ ID No.: 28]”, for which the “activity of lysine-acetylated derivatives against the influenza virus compared with the parent peptides of example 2.1” value in data set [1] is reported as “the same activity”.
Take “SSLLEK*GLDG AKKAVGGLGKLGKDAVEDLESVGKGAVHDVKDVLD (SSLLEK(Ac)GLDGAKKAVGGLGKLGKDAVEDLESVGKGAVHDVKDVLD) [SEQ ID No.: 21]”: the “activity of lysine-acetylated derivatives against the influenza virus compared with the parent peptides of example 2.1” value in data set [1] is “the same activity”. The “activity against the H3N2 subtype” value in data set [3] was “had activity”.
Regarding “SSLLEK*GLDG AKKAVGGLGKLGKDAVEDLESVGKGAVHDVKDVLDSV (SSLLEK(Ac)GLDGAKKAVGGLGKLGKDAVEDLESVGKGAVHDVKDVLDSV) [SEQ ID No.: 22]”, the “activity against the H1N1 subtype” value in data set [2] is “had activity”. Also, the “activity against SARS-CoV-2 (preventing adhesion of the virus to RBCs)” value in data set [4] is “active”. The “activity against the H3N2 subtype” value in data set [3] is given as “had activity”. Besides, the “activity against HcoV-OC43 (preventing adhesion of the virus to RBCs)” value in data set [5] is on record as “active”. Further, the “activity against measles virus (preventing adhesion of the virus to RBCs)” value in the data set on measles virus is given as “active”.
For “SSLLEK*GLDG AKKAVGGLGKLGKDAVEDLESVGKGAVHDVKDVLDSVL (SSLLEK(Ac)GLDGAKKAVGGLGKLGKDAVEDLESVGKGAVHDVKDVLDSVL) [SEQ ID No.: 23]”, the “activity against the H1N1 subtype” value in data set [2] was “had activity”. The “activity against SARS-CoV-2 (preventing adhesion of the virus to RBCs)” value in data set [4] was “active”. The “activity of lysine-acetylated derivatives against the influenza virus compared with the parent peptides of example 2.1” value in data set [1] was “the same activity”. In data set [3], the “activity against the H3N2 subtype” value is reported as “had activity”. Besides, in data set [5], the “activity against HcoV-OC43 (preventing adhesion of the virus to RBCs)” value is “active”. Besides, the “activity against measles virus (preventing adhesion of the virus to RBCs)” value in the data set with measles virus is recorded as “active”.
As to “SSLLEKGLDGAKKAVGGLGKLGKDAVEDLESVGKGAVHDVKDVLD [SEQ ID No.: 3, SSLLEKGLDGAKKAVGGLGKLGKDAVEDLESVGKGAVHDVKDVLD]”, in the data set with MDCK cells (setting [6]), the “peptides that cause significant toxicity in cells” value is recorded as “none”. In addition, the “cells in the culture that exhibited toxicity” value with MDCK cells (setting [7]) is reported as 20%.
On to “SSLLEKGLDGAKKAVGGLGKLGKDAVEDLESVGKGAVHDVKDVLDSVL [SEQ ID No.: 5, SSLLEKGLDGAKKAVGGLGKLGKDAVEDLESVGKGAVHDVKDVLDSVL]”, for which, in the data set on MDCK cells, the “cells in the culture that exhibited toxicity” value is recorded as 20% and the “peptides that cause significant toxicity in cells” value is reported as “none”.
